Assay results as given in ChEMBL document CHEMBL1155628, “A new cembranolide from the soft coral Sinularia capillosa” (2000).
Values after ≈ are worked out from the molar mass of the structure shown.

Legend:
P388 = experiment: Cytotoxicity against mouse P388 cells; assay type: functional; conditions: read-out: ED50 (the source's name)
L1210 = experiment: Cytotoxicity against mouse L1210 cells; assay type: functional; conditions: read-out: ED50 (the source's name)

SMILES | EC50 (P388) [µg/mL] | EC50 (L1210) [µg/mL]
C=C1C(=O)O[C@]2(C)CC[C@@H]1C[C@@H]1O[C@@]1(C)CC[C@H](OC(C)=O)[C@@]1(C)CC[C@@H]2O1 | 2.5 (≈ 6.37 µM) | 5 (≈ 12.7 µM)
C=C1C(=O)O[C@]2(C)CC[C@@H]1C[C@@H](O)[C@@](C)(O)CC/C=C(\C)CC[C@@H]2O [CAPILLOLIDE] | 15 (≈ 42.6 µM) | 18.5 (≈ 52.5 µM)
C=C1C(=O)O[C@@H]2C[C@H]1CC[C@]1(C)O[C@H]1CC/C(C)=C/CC[C@@]2(C)O [FLEXIBILIDE] | 1.5 (≈ 4.48 µM) | 3 (≈ 8.97 µM)
C=C1C(=O)O[C@]2(C)CC[C@@H]1C[C@@H]1O[C@@]1(C)CC/C=C(\C)CC[C@@H]2O [SINULARIOLIDE] | 8.5 (≈ 25.4 µM) | 10 (≈ 29.9 µM)
